Reference: ChEMBL document CHEMBL3046324, “Molecular recognition of long chain fatty acids by peroxisome proliferator-activated receptor” (Med Chem Res, 2009)

Columns and labels:
[1] = biological target: T1, Peroxisome proliferator-activated receptor alpha (Homo sapiens, UniProt Q07869); assay: Inhibition of PPAR-alpha (unknown origin) by SPA assay
T1 sequence (Q07869 whole entry): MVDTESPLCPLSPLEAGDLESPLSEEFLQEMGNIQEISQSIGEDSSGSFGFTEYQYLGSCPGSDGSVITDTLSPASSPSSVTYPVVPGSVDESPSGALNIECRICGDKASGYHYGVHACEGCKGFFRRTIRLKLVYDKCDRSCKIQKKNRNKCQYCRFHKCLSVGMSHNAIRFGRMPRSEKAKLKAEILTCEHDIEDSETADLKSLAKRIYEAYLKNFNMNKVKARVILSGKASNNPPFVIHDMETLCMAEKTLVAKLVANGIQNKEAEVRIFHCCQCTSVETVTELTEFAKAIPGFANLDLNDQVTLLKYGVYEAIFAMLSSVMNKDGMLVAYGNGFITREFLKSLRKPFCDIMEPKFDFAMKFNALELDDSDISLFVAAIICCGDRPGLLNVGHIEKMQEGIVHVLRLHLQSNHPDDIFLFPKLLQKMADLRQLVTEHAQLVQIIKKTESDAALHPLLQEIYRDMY

[2] = biological target: T1, Peroxisome proliferator-activated receptor alpha; assay: Binding affinity to PPAR-alpha (unknown origin) by fluorescence-based assay

IC50 [1] | Kd [2] | Compound
1400 nM | – | CCCCC/C=C\C/C=C\C/C=C\CCCCCCC(=O)O [DIHOMO-GAMMA-LINOLENIC ACID]
> 30000 nM | – | CCCCCCCC/C=C\CCCCCCCCCCCC(=O)O [ERUCIC ACID]
270 nM | – | CCCCC/C=C\C/C=C\C/C=C\CCCCC(=O)O [GAMOLENIC ACID]
1100 nM | – | CC/C=C\C/C=C\C/C=C\C/C=C\C/C=C\CCCC(=O)O [ICOSAPENT]
1100 nM | 4.8 nM | CCCCC/C=C\C/C=C\CCCCCCCC(=O)O [LINOLEIC ACID]
1200 nM | 7.9 nM | CC/C=C\C/C=C\C/C=C\CCCCCCCC(=O)O [LINOLENIC ACID]
600 nM | – | CCCCCCCC/C=C\CCCCCCCC(=O)O [OLEIC ACID]
1700 nM | – | CCCCCC/C=C\CCCCCCCC(=O)O [PALMITOLEIC ACID]

Compound | IC50 [1] | Kd [2]
CCCCC/C=C\C/C=C\C/C=C\C/C=C\CCCC(=O)O [ARACHIDONIC ACID] | 1200 nM | –
